Laboratory results from the NIST ThermoML archive (doi:10.1016/j.fluid.2008.04.022).

Assay: xn = mol fraction of the nth substance listed
Conditions: Fluid (supercritical or subcritical phases), isochoric method

FC(C(F)(F)F)C(F)(F)F [1,1,1,2,3,3,3-heptafluoropropane] + CCF
Conditions | mass density [kg/m3]
318.18 K, 961.3 kPa, x2 = 0.8032 | 441.9
323.18 K, 987.1 kPa, x2 = 0.8032 | 441.8
323.19 K, 1112.7 kPa, x2 = 0.739 | 520.8
328.18 K, 1011.6 kPa, x2 = 0.8032 | 441.8
328.19 K, 1144.3 kPa, x2 = 0.739 | 520.7
333.18 K, 1034.4 kPa, x2 = 0.8032 | 441.7
333.18 K, 1439.9 kPa, x2 = 0.8036 | 671.6
333.19 K, 1173.6 kPa, x2 = 0.739 | 520.7
333.19 K, 1516.7 kPa, x2 = 0.811 | 717.6
338.18 K, 1058.6 kPa, x2 = 0.8032 | 441.7
338.18 K, 1369.5 kPa, x2 = 0.44 | 660.6
338.18 K, 1481.2 kPa, x2 = 0.8036 | 671.6
338.18 K, 1560.1 kPa, x2 = 0.811 | 717.5
338.19 K, 1202.9 kPa, x2 = 0.739 | 520.7
343.18 K, 1231.3 kPa, x2 = 0.739 | 520.6
343.18 K, 1519.5 kPa, x2 = 0.8036 | 671.5
343.18 K, 1601.7 kPa, x2 = 0.811 | 717.5
343.19 K, 1081.5 kPa, x2 = 0.8032 | 441.7
343.19 K, 1413.6 kPa, x2 = 0.44 | 660.5
343.19 K, 1712.3 kPa, x2 = 0.627 | 835.4
348.15 K, 2241.8 kPa, x2 = 0.8392 | 1112.1
348.18 K, 1104.1 kPa, x2 = 0.8032 | 441.6
348.18 K, 1260.2 kPa, x2 = 0.739 | 520.6
348.18 K, 1453.8 kPa, x2 = 0.44 | 660.5
348.18 K, 1557.8 kPa, x2 = 0.8036 | 671.4
348.19 K, 1766.5 kPa, x2 = 0.627 | 835.3
348.2 K, 1643.2 kPa, x2 = 0.811 | 717.4
353.15 K, 2312 kPa, x2 = 0.8392 | 1112
353.18 K, 1127 kPa, x2 = 0.8032 | 441.6
353.18 K, 1287.6 kPa, x2 = 0.739 | 520.5
353.19 K, 1493.5 kPa, x2 = 0.44 | 660.4
353.19 K, 1594.5 kPa, x2 = 0.8036 | 671.4
353.19 K, 1683.4 kPa, x2 = 0.811 | 717.3
353.19 K, 1818 kPa, x2 = 0.627 | 835.2
358.17 K, 1314.9 kPa, x2 = 0.739 | 520.5
358.17 K, 1532 kPa, x2 = 0.44 | 660.3
358.18 K, 1148.5 kPa, x2 = 0.8032 | 441.6
358.18 K, 1631.3 kPa, x2 = 0.8036 | 671.3
358.19 K, 1722.8 kPa, x2 = 0.811 | 717.3
358.19 K, 1868.1 kPa, x2 = 0.627 | 835.2
358.23 K, 2381.4 kPa, x2 = 0.8392 | 1111.9
363.14 K, 2448.2 kPa, x2 = 0.8392 | 1111.8
363.19 K, 1171.1 kPa, x2 = 0.8032 | 441.5
363.19 K, 1569.8 kPa, x2 = 0.44 | 660.3
363.19 K, 1761.7 kPa, x2 = 0.811 | 717.2
363.19 K, 1917 kPa, x2 = 0.627 | 835.1
363.2 K, 2459.6 kPa, x2 = 0.4954 | 1290.6
363.21 K, 1667 kPa, x2 = 0.8036 | 671.3
363.31 K, 1342.8 kPa, x2 = 0.739 | 520.4
368.14 K, 1369.4 kPa, x2 = 0.739 | 520.4
368.14 K, 1800.8 kPa, x2 = 0.811 | 717.2
368.16 K, 1608 kPa, x2 = 0.44 | 660.2
368.16 K, 1966 kPa, x2 = 0.627 | 835
368.17 K, 1703 kPa, x2 = 0.8036 | 671.2
368.18 K, 2515 kPa, x2 = 0.8392 | 1111.7
368.18 K, 2548.7 kPa, x2 = 0.4954 | 1290.5
368.29 K, 1193.9 kPa, x2 = 0.8032 | 441.5
373.04 K, 1215 kPa, x2 = 0.8032 | 441.5
373.15 K, 1644.9 kPa, x2 = 0.44 | 660.2
373.16 K, 1839.4 kPa, x2 = 0.811 | 717.1
373.18 K, 1396.2 kPa, x2 = 0.739 | 520.4
373.18 K, 1738.7 kPa, x2 = 0.8036 | 671.2
373.18 K, 2580 kPa, x2 = 0.8392 | 1111.6
373.18 K, 2636.7 kPa, x2 = 0.4954 | 1290.4
373.19 K, 2014.5 kPa, x2 = 0.627 | 835
376.18 K, 2687.7 kPa, x2 = 0.4954 | 1290.3
378.17 K, 2644.8 kPa, x2 = 0.8392 | 1111.5
378.23 K, 1774.6 kPa, x2 = 0.8036 | 671.1
378.23 K, 2063.3 kPa, x2 = 0.627 | 834.9
378.25 K, 1422.5 kPa, x2 = 0.739 | 520.3
378.25 K, 1681.3 kPa, x2 = 0.44 | 660.1
378.25 K, 1876.9 kPa, x2 = 0.811 | 717
378.29 K, 1236.9 kPa, x2 = 0.8032 | 441.4
379.23 K, 2739.1 kPa, x2 = 0.4954 | 1290.3
382.19 K, 2788.4 kPa, x2 = 0.4954 | 1290.2
383.08 K, 1448.6 kPa, x2 = 0.739 | 520.3
383.17 K, 2708.3 kPa, x2 = 0.8392 | 1111.4
383.2 K, 2110.6 kPa, x2 = 0.627 | 834.8
383.21 K, 1718.2 kPa, x2 = 0.44 | 660.1
383.21 K, 1809.6 kPa, x2 = 0.8036 | 671.1
383.21 K, 1915.8 kPa, x2 = 0.811 | 717
383.22 K, 1259.2 kPa, x2 = 0.8032 | 441.4
385.22 K, 2838.9 kPa, x2 = 0.4954 | 1290.1
388.17 K, 2771 kPa, x2 = 0.8392 | 1111.3
388.18 K, 1279.7 kPa, x2 = 0.8032 | 441.3
388.18 K, 2156.7 kPa, x2 = 0.627 | 834.8
388.19 K, 1754.7 kPa, x2 = 0.44 | 660
388.19 K, 1844.5 kPa, x2 = 0.8036 | 671
388.19 K, 1953.2 kPa, x2 = 0.811 | 716.9
388.19 K, 2887.9 kPa, x2 = 0.4954 | 1290.1
388.32 K, 1475.8 kPa, x2 = 0.739 | 520.2
391.22 K, 2937.4 kPa, x2 = 0.4954 | 1290
393.18 K, 1501.3 kPa, x2 = 0.739 | 520.2
393.18 K, 1790.2 kPa, x2 = 0.44 | 660
393.18 K, 1879 kPa, x2 = 0.8036 | 670.9
393.18 K, 1990.4 kPa, x2 = 0.811 | 716.9
393.18 K, 2203.2 kPa, x2 = 0.627 | 834.7
393.21 K, 1301.7 kPa, x2 = 0.8032 | 441.3
393.22 K, 2834 kPa, x2 = 0.8392 | 1111.2
394.18 K, 2985.9 kPa, x2 = 0.4954 | 1289.9
397.15 K, 3033.4 kPa, x2 = 0.4954 | 1289.9
398.16 K, 1322.9 kPa, x2 = 0.8032 | 441.3
398.16 K, 1912.8 kPa, x2 = 0.8036 | 670.9
398.16 K, 2248.3 kPa, x2 = 0.627 | 834.6
398.17 K, 1527.2 kPa, x2 = 0.739 | 520.1
398.17 K, 1825.4 kPa, x2 = 0.44 | 659.9
398.17 K, 2027.2 kPa, x2 = 0.811 | 716.8
398.21 K, 2896 kPa, x2 = 0.8392 | 1111.2
400.15 K, 3082 kPa, x2 = 0.4954 | 1289.8
403.14 K, 1344.2 kPa, x2 = 0.8032 | 441.2
403.15 K, 1946.2 kPa, x2 = 0.8036 | 670.8
403.16 K, 1553.2 kPa, x2 = 0.739 | 520.1
403.16 K, 1860.1 kPa, x2 = 0.44 | 659.8
403.17 K, 2293.4 kPa, x2 = 0.627 | 834.5
403.19 K, 2956.6 kPa, x2 = 0.8392 | 1111.1
403.19 K, 3129.8 kPa, x2 = 0.4954 | 1289.8
403.2 K, 2063.9 kPa, x2 = 0.811 | 716.8
